PubChem BioAssay AID248 (DTP/NCI, 2004)
“And” between values parts separate entries of the source, which are not always exact repeats. Equal entries are not always repeated. Inconclusive results and toxic doses are left out. No stated cut-off is given here; in the data, active means T/C of 150% or more; inactive means T/C below 125%.

Tested on: L1210 leukemia ip in BDF1 mice, survival T/C
Assay: NCI In Vivo Anticancer Drug Screen. Data for tumor model L1210 Leukemia (intraperitoneal) in B6D2F1 (BDF1) mice
Conditions: higher = longer survival
How it was run: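 Antitumor effect is assessed in tumor-bearing animals. Survival in the compound arm is compared with a vehicle-dosed control arm and expressed as their quotient.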

[1] = endpoint: mean survival time, dose: 100.0 mg/kg/injection, schedule: Q01DX001 (ip), vehicle: saline with Tween-80
[2] = endpoint: mean survival time, dose: 100.0 mg/kg/injection, schedule: Q01DX009 (ip), vehicle: saline with Tween-80
[3] = endpoint: mean survival time, dose: 200.0 mg/kg/injection, schedule: Q01DX001 (ip), vehicle: saline with Tween-80
[4] = endpoint: mean survival time, dose: 100.0 mg/kg/injection, schedule: Q01DX009 (ip), vehicle: Klucel (hydroxypropylcellulose) (HPC)
[5] = endpoint: mean survival time, dose: 100.0 mg/kg/injection, schedule: Q04DX003 (ip), vehicle: Klucel (hydroxypropylcellulose) (HPC)
[6] = endpoint: mean survival time, dose: 200.0 mg/kg/injection, schedule: Q01DX009 (ip), vehicle: Klucel (hydroxypropylcellulose) (HPC)
[7] = endpoint: mean survival time, dose: 200.0 mg/kg/injection, schedule: Q04DX003 (ip), vehicle: Klucel (hydroxypropylcellulose) (HPC)
[8] = endpoint: mean survival time, dose: 400.0 mg/kg/injection, schedule: Q01DX009 (ip), vehicle: Klucel (hydroxypropylcellulose) (HPC)
[9] = endpoint: mean survival time, dose: 400.0 mg/kg/injection, schedule: Q04DX003 (ip), vehicle: Klucel (hydroxypropylcellulose) (HPC)
[10] = endpoint: mean survival time, dose: 100.0 mg/kg/injection, schedule: Q01DX009 (ip), vehicle: saline
[11] = endpoint: mean survival time, dose: 200.0 mg/kg/injection, schedule: Q01DX009 (ip), vehicle: saline
[12] = endpoint: mean survival time, dose: 400.0 mg/kg/injection, schedule: Q01DX009 (ip), vehicle: saline
[13] = endpoint: mean survival time, dose: 100.0 mg/kg/injection, schedule: Q04DX003 (ip), vehicle: saline
[14] = endpoint: mean survival time, dose: 200.0 mg/kg/injection, schedule: Q04DX003 (ip), vehicle: saline
[15] = endpoint: mean survival time, dose: 400.0 mg/kg/injection, schedule: Q04DX003 (ip), vehicle: saline
[16] = endpoint: mean survival time, dose: 400.0 mg/kg/injection, schedule: Q01DX001 (ip), vehicle: saline
[17] = endpoint: mean survival time, dose: 100.0 mg/kg/injection, schedule: Q04DX002 (ip), vehicle: Klucel (hydroxypropylcellulose) (HPC)
[18] = endpoint: mean survival time, dose: 200.0 mg/kg/injection, schedule: Q04DX002 (ip), vehicle: Klucel (hydroxypropylcellulose) (HPC)

Measured: T/C

c1ccc(C(Nc2ccnc3nc[nH]c23)c2ccccc2)cc1
inactive: endpoint: mean survival time, dose: 25.0 mg/kg/injection, schedule: Q01DX001 (ip), vehicle: saline with Tween-80 107 % of control | endpoint: mean survival time, dose: 50.0 mg/kg/injection, schedule: Q01DX001 (ip), vehicle: saline with Tween-80 102 % of control | endpoint: mean survival time, dose: 50.0 mg/kg/injection, schedule: Q01DX009 (ip), vehicle: saline with Tween-80 96 % of control | endpoint: mean survival time, dose: 50.0 mg/kg/injection, schedule: Q04DX003 (ip), vehicle: saline with Tween-80 95 % of control | endpoint: mean survival time, dose: 75.0 mg/kg/injection, schedule: Q01DX001 (ip), vehicle: saline with Tween-80 101 % of control | [1] 94 % of control | [2] 107 % of control | endpoint: mean survival time, dose: 100.0 mg/kg/injection, schedule: Q04DX003 (ip), vehicle: saline with Tween-80 91 % of control | [3] 93 % of control | endpoint: mean survival time, dose: 200.0 mg/kg/injection, schedule: Q04DX003 (ip), vehicle: saline with Tween-80 92 % of control

Cc1[nH]c(=O)[nH]c(=O)c1C
inactive: [4] 106 % of control | [5] 102 % of control | [6] 103 % of control | [7] 98 % of control | [8] 93 % of control | [9] 91 % of control

CCOC(=O)C1C(C(=O)c2ccc(C)cc2)C2(Cl)C(Cl)=C(Cl)C1(Cl)C2(Cl)Cl (centres undefined)
inactive: [10] 96 % of control | [11] 91 % of control | [12] 98 % of control

CCCCOC(=O)c1ccc(NC(=O)Nc2cccc(F)c2)cc1
inactive: [2] 95 % of control

COCCCN=C(N)C(N)=NCCCOC
inactive: [10] 99 % of control | [13] 100 % of control and 98 % of control | [11] 98 % of control | [14] 93 % of control and 101 % of control | [12] 98 % of control | [15] 93 % of control and 95 % of control

CCOC(=O)C(C)(C)[Si](C)(C)C
inactive: endpoint: mean survival time, dose: 50.0 mg/kg/injection, schedule: Q01DX001 (ip), vehicle: saline 97 % of control | endpoint: mean survival time, dose: 100.0 mg/kg/injection, schedule: Q01DX001 (ip), vehicle: saline 103 % of control | endpoint: mean survival time, dose: 200.0 mg/kg/injection, schedule: Q01DX001 (ip), vehicle: saline 97 % of control | [16] 97 % of control

CN(C)C1C(CO)C(CO)C1(C)C (centres undefined)
inactive: [1] 102 % of control | [3] 97 % of control

CN(Cc1ccccc1)N=Nc1ccccc1
inactive: endpoint: mean survival time, dose: 50.0 mg/kg/injection, schedule: Q04DX002 (ip), vehicle: Klucel (hydroxypropylcellulose) (HPC) 103 % of control | [17] 95 % of control | [18] 116 % of control

NCC1OC(OC2C(N)CC(N)C(O)C2O)C(NC(=O)c2ccccc2)C(O)C1O (centres undefined)
inactive: [5] 91 % of control | [7] 96 % of control | [9] 91 % of control

CCN(CCO)CCNc1ccc(CO)c2sc3cc(Cl)ccc3c(=O)c12
inactive: endpoint: mean survival time, dose: 50.0 mg/kg/injection, schedule: Q01DX009 (ip), vehicle: Klucel (hydroxypropylcellulose) (HPC) 91 % of control | [4] 96 % of control | [6] 91 % of control

O=S(=O)(O)NC1CCCCC1
inactive: endpoint: mean survival time, dose: 25.0 mg/kg/injection, schedule: Q01DX009 (ip), vehicle: acetone 100 % of control | endpoint: mean survival time, dose: 50.0 mg/kg/injection, schedule: Q01DX009 (ip), vehicle: acetone 100 % of control | endpoint: mean survival time, dose: 100.0 mg/kg/injection, schedule: Q01DX009 (ip), vehicle: acetone 100 % of control | [16] 95 % of control | endpoint: mean survival time, dose: 800.0 mg/kg/injection, schedule: Q01DX001 (ip), vehicle: saline 90 % of control | endpoint: mean survival time, dose: 1200.0 mg/kg/injection, schedule: Q01DX001 (ip), vehicle: saline 86 % of control | endpoint: mean survival time, dose: 1600.0 mg/kg/injection, schedule: Q01DX001 (ip), vehicle: saline 92 % of control

CCN=C(N)C(C)SS(=O)(=O)O (centres undefined)
inactive: endpoint: mean survival time, dose: 100.0 mg/kg/injection, schedule: Q04DX002 (ip), vehicle: saline 106 % of control | endpoint: mean survival time, dose: 200.0 mg/kg/injection, schedule: Q04DX002 (ip), vehicle: saline 98 % of control

CCOC(=O)C(C)(OCC)OCC
inactive: [10] 103 % of control | endpoint: mean survival time, dose: 100.0 mg/kg/injection, schedule: Q01DX009 (ip), vehicle: water 100 % of control | [13] 109 % of control | endpoint: mean survival time, dose: 100.0 mg/kg/injection, schedule: Q04DX003 (ip), vehicle: water 97 % of control | [11] 96 % of control | endpoint: mean survival time, dose: 200.0 mg/kg/injection, schedule: Q01DX009 (ip), vehicle: water 100 % of control | [14] 96 % of control | endpoint: mean survival time, dose: 200.0 mg/kg/injection, schedule: Q04DX003 (ip), vehicle: water 101 % of control | [12] 88 % of control | endpoint: mean survival time, dose: 400.0 mg/kg/injection, schedule: Q01DX009 (ip), vehicle: water 91 % of control | [15] 102 % of control | endpoint: mean survival time, dose: 400.0 mg/kg/injection, schedule: Q04DX003 (ip), vehicle: water 97 % of control

CCn1c2ccccc2c2cc3ccnc(C)c3cc21
inactive: [17] 97 % of control | [18] 101 % of control | endpoint: mean survival time, dose: 400.0 mg/kg/injection, schedule: Q04DX002 (ip), vehicle: Klucel (hydroxypropylcellulose) (HPC) 111 % of control

OC1OC2COC(c3ccccc3)OC2C(O)C1O (centres undefined)
inactive: endpoint: median survival time, dose: 25.0 mg/kg/injection, schedule: Q01DX009 (ip), vehicle: water 106 % of control | endpoint: median survival time, dose: 50.0 mg/kg/injection, schedule: Q01DX009 (ip), vehicle: water 106 % of control | endpoint: median survival time, dose: 100.0 mg/kg/injection, schedule: Q01DX009 (ip), vehicle: water 97 % of control | endpoint: median survival time, dose: 200.0 mg/kg/injection, schedule: Q01DX009 (ip), vehicle: water 100 % of control | endpoint: median survival time, dose: 400.0 mg/kg/injection, schedule: Q01DX009 (ip), vehicle: water 101 % of control | endpoint: median survival time, dose: 800.0 mg/kg/injection, schedule: Q01DX009 (ip), vehicle: water 96 % of control

Cc1c(N)nc(C(CC(N)=O)NCC(N)C(N)=O)nc1C(=O)NC(C(=O)NC(C)C(O)C(C)C(=O)NC(C(=O)NCCc1nc(-c2nc(C(=O)NCCC[S+](C)C)cs2)cs1)C(C)O)C(OC1OC(CO)C(O)C(O)C1OC1OC(CO)C(O)C(OC(N)=O)C1O)c1cnc[nH]1 (centres undefined)
inactive: endpoint: mean survival time, dose: 1.0 mg/kg/injection, schedule: Q01DX009 (ip), vehicle: Klucel (hydroxypropylcellulose) (HPC) 106 % of control | endpoint: mean survival time, dose: 2.0 mg/kg/injection, schedule: Q01DX009 (ip), vehicle: Klucel (hydroxypropylcellulose) (HPC) 95 % of control | endpoint: mean survival time, dose: 4.0 mg/kg/injection, schedule: Q01DX009 (ip), vehicle: Klucel (hydroxypropylcellulose) (HPC) 107 % of control | endpoint: mean survival time, dose: 8.0 mg/kg/injection, schedule: Q01DX009 (ip), vehicle: Klucel (hydroxypropylcellulose) (HPC) 101 % of control

O=[N+]([O-])C12CCCCC1([N+](=O)[O-])CCCC2 (centres undefined)
inactive: [13] 103 % of control | [14] 92 % of control | [15] 108 % of control

COc1ccccc1NC(=O)Nc1cccc(C)c1C
inactive: [4] 96 % of control | [5] 93 % of control | [6] 92 % of control | [7] 93 % of control | [8] 100 % of control | [9] 92 % of control
